The text below walks through data of patent publication US12559529B2, “NPY2 receptor agonists” (Boehringer Ingelheim International GmbH, priority 2019, dated 2026).

Each structure is given as a SMILES string. *1 amine or outer side, *2 acyl side, *3 side chain or, on linkers, in order; H or OH if unused. Where a SMILES comes first, the peptide text is derived from it. Side-chain parts run from the residue outwards. The star is where a group is joined. C18 diacid = O=C(O)CCCCCCCCCCCCCCCCC(=O)*; γGlu = O=C(O)[C@H](CCC(=O)[*:2])N[*:1]; Isovaleryl = CC(C)CC(=O)*; AEEA = NCCOCCOCC(=O)O

The test system of one test is normal NMRI mice. Description: Effect on acute food intake in normal NMRI mice. Type of test: in vivo. Particulars: male NMRI mice, 10 nmol/kg subcutaneously once. Put shortly: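 Male NMRI mice acclimatized in an HM-2 real-time food intake monitoring system, fasted 6 h before dark phase. Single subcutaneous dose of 10 nmol/kg peptide given 1 h before dark; n=7-8. Food intake expressed as % of vehicle group (50 mM phosphate pH7, 5% Mannitol).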

Test [1] deals with T1, Human Neuropeptide Y2 Receptor (Homo sapiens, UniProt P49146).
T1 construct: purchased CHEMICON HTS066M
T1 sequence (P49146 1-381): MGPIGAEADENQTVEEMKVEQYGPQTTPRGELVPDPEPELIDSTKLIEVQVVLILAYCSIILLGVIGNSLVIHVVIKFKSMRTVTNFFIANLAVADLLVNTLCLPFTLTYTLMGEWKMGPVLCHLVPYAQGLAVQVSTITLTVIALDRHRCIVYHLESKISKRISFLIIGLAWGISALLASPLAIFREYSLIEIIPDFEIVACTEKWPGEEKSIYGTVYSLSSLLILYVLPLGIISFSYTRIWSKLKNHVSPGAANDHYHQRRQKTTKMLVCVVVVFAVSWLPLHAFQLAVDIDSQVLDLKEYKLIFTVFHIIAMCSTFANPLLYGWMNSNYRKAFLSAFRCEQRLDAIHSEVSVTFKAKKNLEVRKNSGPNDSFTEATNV
Description: Radioligand binding competition assay (RLB). To be noted: Table 3; human 125I-PYY (1-36) 0.02 nM, Y2 receptor membranes; read-out: Ki. Put shortly:
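Competition binding at commercial human NPY Y2 membrane preparations, 0.5 μg protein per well, 2 h incubation at room temperature. Bound and free ligand were separated on GF/C filters and counted; IC50 was fitted by nonlinear regression.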

As for `CC[C@H](C)[C@H](NC(=O)[C@H](CCC(=O)O)NC(=O)[C@H](CCC(=O)O)NC(=O)[C@@H]1CCCN1C(=O)[C@H](CO)NC(=O)[C@H](C)NC(=O)[C@H](CCC(=O)O)NC(=O)[C@H](CCC(=O)O)NC(=O)[C@H](CCC(=O)O)NC(=O)[C@@H]1CCCN1C(=O)[C@H](CCCCNC(=O)COCCOCCNC(=O)COCCOCCNC(=O)CC[C@H](NC(=O)CCCCCCCCCCCCCCCCC(=O)O)C(=O)O)NC(=O)[C@H](CCC(=O)O)NC(=O)[C@@H]1CCCN1C(=O)[C@H](C)NC(=O)CC(C)C)C(=O)N[C@@H](CCC(N)=O)C(=O)N[C@@H](CCCNC(=N)N)C(=O)N[C@@H](Cc1ccc(O)cc1)C(=O)N[C@@H](Cc1ccc(O)cc1)C(=O)N[C@H](C(=O)N[C@@H](CO)C(=O)N[C@@H](CC(C)C)C(=O)N[C@@H](CCCNC(=N)N)C(=O)N[C@@H](Cc1c[nH]cn1)C(=O)N[C@@H](Cc1ccc(O)cc1)C(=O)N[C@@H](Cc1ccc(O)cc1)C(=O)N[C@@H](CC(N)=O)C(=O)N[C@@H](Cc1c[nH]c2ccccc12)C(=O)N[C@@H](CC(C)C)C(=O)N[C@H](C(=O)N[C@@H](CCCNC(=N)N)C(=O)N[C@@H](CCC(N)=O)C(=O)N[C@@H](CCCNC(=N)N)C(=O)N[C@@H](Cc1ccc(O)cc1)C(N)=O)[C@@H](C)O)C(C)C` [Compound 241, N{alpha-4}-(3-methylbutanoyl)-N{epsilon-7}-[2-(2-{2-[2-(2-{2-[(4S)-4-carboxy-4-(17-carboxyheptadecanamido)butanamido]ethoxy}ethoxy)acetamido]ethoxy}ethoxy)acetamido]-[4A,7K,9E,11E,17I,18Q,22V,28Y,30W,31L]hPYY (4-36)], the “Acute Food Intake 24 h [% vehicle]” value in the test with normal NMRI mice was 45 % vehicle. In test [1], the inhibitory constant (Ki) amounted to 2.95 nM.
The corresponding values for `CC(C)CC(=O)N[C@@H](C)C(=O)N1CCC[C@H]1C(=O)N[C@@H](CCC(=O)O)C(=O)N[C@@H](CCCCNC(=O)COCCOCCNC(=O)COCCOCCNC(=O)CC[C@H](NC(=O)CCCCCCCCCCCCCCCCC(=O)O)C(=O)O)C(=O)N1CCC[C@H]1C(=O)N[C@@H](CCC(=O)O)C(=O)N[C@@H](CCC(=O)O)C(=O)N[C@@H](CC(=O)O)C(=O)N[C@@H](C)C(=O)N[C@@H](CO)C(=O)N[C@@H](CCC(=O)O)C(=O)N[C@@H](CCC(=O)O)C(=O)N[C@@H](CCC(=O)O)C(=O)N[C@H](C(=O)N[C@@H](CCC(N)=O)C(=O)N[C@@H](CCCNC(=N)N)C(=O)N[C@@H](Cc1ccc(O)cc1)C(=O)N[C@@H](Cc1ccc(O)cc1)C(=O)N[C@H](C(=O)N[C@@H](CO)C(=O)N[C@@H](CC(C)C)C(=O)N[C@@H](CCCNC(=N)N)C(=O)N[C@@H](Cc1c[nH]cn1)C(=O)N[C@@H](Cc1ccc(O)cc1)C(=O)N[C@@H](Cc1ccc(O)cc1)C(=O)N[C@@H](CC(N)=O)C(=O)N[C@@H](Cc1c[nH]c2ccccc12)C(=O)N[C@@H](CC(C)C)C(=O)N[C@H](C(=O)N[C@@H](CCCNC(=N)N)C(=O)N[C@@H](CCC(N)=O)C(=O)N[C@@H](CCCNC(=N)N)C(=O)N[C@@H](Cc1ccc(O)cc1)C(N)=O)[C@@H](C)O)C(C)C)[C@@H](C)O` [Compound 208, N{alpha-4}-(3-methylbutanoyl)-N{epsilon-7}-[2-(2-{2-[2-(2-{2-[(4S)-4-carboxy-4-(17-carboxyheptadecanamido)butanamido]ethoxy}ethoxy)acetamido]ethoxy}ethoxy)acetamido]-[4A,7K,9E,14E,17T,18Q,22V,28Y,30W,31L]hPYY (4-36)] are 61 % vehicle and 3.8 nM.
Turning to `CC(C)CC(=O)N[C@@H](C)C(=O)N1CCC[C@H]1C(=O)N[C@@H](CCC(=O)O)C(=O)N[C@@H](CCCCNC(=O)COCCOCCNC(=O)COCCOCCNC(=O)CC[C@H](NC(=O)CCCCCCCCCCCCCCCCC(=O)O)C(=O)O)C(=O)N1CCC[C@H]1C(=O)N[C@@H](CCC(=O)O)C(=O)N[C@@H](CCC(=O)O)C(=O)N[C@@H](CCC(=O)O)C(=O)N[C@@H](C)C(=O)N[C@@H](CO)C(=O)N1CCC[C@H]1C(=O)N[C@@H](C)C(=O)N[C@@H](CCC(=O)O)C(=O)N[C@@H](CC(C)C)C(=O)N[C@@H](CCC(N)=O)C(=O)N[C@@H](CCCNC(=N)N)C(=O)N[C@@H](Cc1ccc(O)cc1)C(=O)N[C@@H](Cc1ccc(O)cc1)C(=O)N[C@H](C(=O)N[C@@H](CO)C(=O)N[C@@H](CC(C)C)C(=O)N[C@@H](CCCNC(=N)N)C(=O)N[C@@H](Cc1c[nH]cn1)C(=O)N[C@@H](Cc1ccc(O)cc1)C(=O)N[C@@H](Cc1ccc(O)cc1)C(=O)N[C@@H](CC(N)=O)C(=O)N[C@@H](Cc1c[nH]c2ccccc12)C(=O)N[C@@H](CC(C)C)C(=O)N[C@H](C(=O)N[C@@H](CCCNC(=N)N)C(=O)N[C@@H](CCC(N)=O)C(=O)N[C@@H](CCCNC(=N)N)C(=O)N[C@@H](Cc1ccc(O)cc1)C(N)=O)[C@@H](C)O)C(C)C` [Compound 3, N{alpha-4}-(3-methylbutanoyl)-N{epsilon-7}-[2-(2-{2-[2-(2-{2-[(4S)-4-carboxy-4-(17-carboxyheptadecanamido)butanamido]ethoxy}ethoxy)acetamido]ethoxy}ethoxy)acetamido]-[4A,7K,9E,11E,15A,18Q,22V,28Y,30W,31L]hPYY (4-36)] (Isovaleryl-APEK([AEEA-AEEA-γGlu-C18 diacid])PEEEASPAELQRYYVSLRHYYNWLTRQRY-NH2), in the test with normal NMRI mice, the “Acute Food Intake 24 h [% vehicle]” value is on record as 62 % vehicle. Further, the Ki in test [1] came out at 3.14 nM.
Regarding `CC(C)CC(=O)N[C@@H](C)C(=O)N1CCC[C@H]1C(=O)N[C@@H](CCC(=O)O)C(=O)N[C@@H](CCCCNC(=O)COCCOCCNC(=O)COCCOCCNC(=O)CC[C@H](NC(=O)CCCCCCCCCCCCCCCCC(=O)O)C(=O)O)C(=O)N1CCC[C@H]1C(=O)N[C@@H](CCC(=O)O)C(=O)N[C@@H](CCC(=O)O)C(=O)N[C@@H](CC(=O)O)C(=O)N[C@@H](C)C(=O)N[C@@H](CO)C(=O)N1CCC[C@H]1C(=O)N[C@@H](CCC(=O)O)C(=O)N[C@@H](CCC(=O)O)C(=O)N[C@@H](CC(C)C)C(=O)N[C@@H](CCC(N)=O)C(=O)N[C@@H](CCCNC(=N)N)C(=O)N[C@@H](Cc1ccc(O)cc1)C(=O)N[C@@H](Cc1ccc(O)cc1)C(=O)N[C@H](C(=O)N[C@@H](CCC(=O)O)C(=O)N[C@@H](CC(C)C)C(=O)N[C@@H](CCCNC(=N)N)C(=O)N[C@@H](Cc1c[nH]cn1)C(=O)N[C@@H](Cc1ccc(O)cc1)C(=O)N[C@@H](Cc1ccc(O)cc1)C(=O)N[C@@H](CC(N)=O)C(=O)N[C@@H](Cc1c[nH]c2ccccc12)C(=O)N[C@@H](CC(C)C)C(=O)N[C@H](C(=O)N[C@@H](CCCNC(=N)N)C(=O)N[C@@H](CCC(N)=O)C(=O)N[C@@H](CCCNC(=N)N)C(=O)N[C@@H](Cc1ccc(O)cc1)C(N)=O)[C@@H](C)O)C(C)C` [Compound 108, N{alpha-4}-(3-methylbutanoyl)-N{epsilon-7}-[2-(2-{2-[2-(2-{2-[(4S)-4-carboxy-4-(17-carboxyheptadecanamido)butanamido]ethoxy}ethoxy)acetamido]ethoxy}ethoxy)acetamido]-[4A,7K,9E,18Q,22V,23E,28Y,30W,31L]hPYY (4-36)], in the test with normal NMRI mice, the “Acute Food Intake 24 h [% vehicle]” value is 47 % vehicle. For the same compound, the Ki in test [1] is 0.99 nM.
Turning to `CC(C)CC(=O)N[C@@H](C)C(=O)N1CCC[C@H]1C(=O)N[C@@H](C)C(=O)N[C@@H](CCCCNC(=O)COCCOCCNC(=O)COCCOCCNC(=O)CC[C@H](NC(=O)CCCCCCCCCCCCCCCCC(=O)O)C(=O)O)C(=O)N1CCC[C@H]1C(=O)N[C@@H](CCC(=O)O)C(=O)N[C@@H](CCC(=O)O)C(=O)N[C@@H](CC(=O)O)C(=O)N[C@@H](C)C(=O)N[C@@H](CCC(=O)O)C(=O)N1CCC[C@H]1C(=O)N[C@@H](CCC(=O)O)C(=O)N[C@@H](CCC(=O)O)C(=O)N[C@@H](CC(C)C)C(=O)N[C@@H](CCC(N)=O)C(=O)N[C@@H](CCCNC(=N)N)C(=O)N[C@@H](Cc1ccc(O)cc1)C(=O)N[C@@H](Cc1ccc(O)cc1)C(=O)N[C@H](C(=O)N[C@@H](CO)C(=O)N[C@@H](CC(C)C)C(=O)N[C@@H](CCCNC(=N)N)C(=O)N[C@@H](Cc1c[nH]cn1)C(=O)N[C@@H](Cc1ccc(O)cc1)C(=O)N[C@@H](Cc1ccc(O)cc1)C(=O)N[C@@H](CC(N)=O)C(=O)N[C@@H](Cc1c[nH]c2ccccc12)C(=O)N[C@@H](CC(C)C)C(=O)N[C@H](C(=O)N[C@@H](CCCNC(=N)N)C(=O)N[C@@H](CCC(N)=O)C(=O)N[C@@H](CCCNC(=N)N)C(=O)N[C@@H](Cc1ccc(O)cc1)C(N)=O)[C@@H](C)O)C(C)C` [Compound 174, N{alpha-4}-(3-methylbutanoyl)-N{epsilon-7}-[2-(2-{2-[2-(2-{2-[(4S)-4-carboxy-4-(17-carboxyheptadecanamido)butanamido]ethoxy}ethoxy)acetamido]ethoxy}ethoxy)acetamido]-[4A,6A,7K,9E,13E,18Q,22V,28Y,30W,31L]hPYY (4-36)], the “Acute Food Intake 24 h [% vehicle]” value with normal NMRI mice amounted to 41 % vehicle. For the same compound, the Ki in test [1] stood at 3.89 nM.

Usually Ki stands for the dissociation constant of the complex between target and ligand, obtained from inhibition or displacement.
